Data on 57 molecules can be found in ChEMBL document CHEMBL1129429, “Structure-activity relationships for the binding of arylpiperazines and arylbiguanides at 5-HT3 serotonin receptors” (J Med Chem, 1996).

Assay [1] addresses Serotonin 3 (5-HT3) receptor. Nature of the assay: Compound was tested for the inhibition of [3H]GR-65630 binding to 5-hydroxytryptamine 3 receptor expressed in NG 108-15 cells. Type of assay: cell-based.
Assay [2] is filed under the species Rattus norvegicus. Nature of the assay: Compound tested for its 5-HT3 -Stimulant potency in rat relative to compound 6 ( Value = 1); range 0.3-0.6. The assay is classed as functional.
The species named for the next assay is Oryctolagus cuniculus. Nature of the assay: Minimal effective dose for its 5-HT3 -Stimulant potency in rabbit bladder preparation. Type of assay: functional.
For assay [3], the species on record is Rattus norvegicus. Description: Compound tested for its 5-HT3 -Stimulant potency in rat relative to compound 6 ( Value = 1). Type of assay: functional.
Assay [4] is filed under the species Rattus norvegicus. Description: Compound tested for its 5-HT3 -Stimulant potency in rat relative to compound 6 ( Value = 1); Range 0.5-1.3. The assay is classed as functional.

Bounds are passed on as bounds.

Regarding `COc1ccc(Cl)cc1/N=C(\N)N=C(N)N`, in assay [1] (read-out: Ki), the Ki came out at 126 nM.
On the same count and under the same terms, as for `N=C(N)Nc1ccccn1`, the figure is more than 10000 nM.
Consider `N=C(N)NC(=N)Nc1ccccc1` [PHENYL BIGUANIDE], for which the Relative potency in the assay filed under Rattus norvegicus [2] turned out to be 0.45. Besides, the Min effective dose in the assay listed under Oryctolagus cuniculus worked out at 0.01 mg/kg. Further, the Ki in assay [1] (read-out: Ki) came to 1200 nM.
For the molecule `N=C(N)Nc1ccccc1` [PHENYLGUANIDINE], the Ki in assay [1] (read-out: Ki) was determined as 2340 nM.
The same measure, in the same setting: the same measure for `c1ccc2nc(N3CCCCC3)ccc2c1`: more than 10000 nM; for `Clc1ccc(N2CCNCC2)cc1`: 2160 nM.
For the molecule `N=C(N)Cc1cccc(Cl)c1`, in assay [1] (read-out: Ki), the Ki is 1200 nM.
On the same count and under the same terms, as for `N=C(N)Nc1cccnc1` [PYRAXININE], the figure is 2910 nM; as for `Cc1cccc(NC(N)=NC(=N)N)c1`, 780 nM; as for `C[N+]1(C)CCN(c2cccc(Cl)c2)CC1`, 1450 nM.
Take `COc1ccc(N2CCNCC2)cc1`: the inhibitory constant (Ki) in assay [1] (read-out: Ki) worked out at 1640 nM.
Same read-out and setting: as for `NC(N)=Nc1cccc(C(F)(F)F)c1`, the figure is 5700 nM; as for `COc1cccc(NC(=N)N)c1`, 1600 nM.
The same measure, in the same setting: the same measure for `FC(F)(F)c1cccc(N2CCNCC2)c1`: 1390 nM; for `c1ccc2c(N3CCNCC3)cccc2c1`: 175 nM; for `COc1ccc(N2CCNCC2)c(C)c1`: 660 nM.
Molecule `N=C(N)NC(=N)Nc1ccc2ccccc2c1` displayed a Min effective dose in the assay listed under Oryctolagus cuniculus of 0.01 mg/kg. Further, the Ki in assay [1] (read-out: Ki) is 12 nM. In addition, in the assay listed under Rattus norvegicus [3], the Relative potency worked out at 0.5.
Consider `NC(N)=Nc1cccc(Cl)c1`, for which, in the assay listed under Oryctolagus cuniculus, the Min effective dose turned out to be 0.15 mg/kg. The Ki in assay [1] (read-out: Ki) amounted to 35 nM. For the same molecule, the Relative potency in the assay filed under Rattus norvegicus [4] is reported as 0.74.
With `N=C(N)NCCc1cccc(Cl)c1`, in assay [1] (read-out: Ki), the Ki is 40 nM.
As to `N=C(N)NC(=N)Nc1ccc(Cl)cc1` [4-CHLOROPHENYLBIGUANIDE], in assay [1] (read-out: Ki), the Ki was 200 nM.
For the molecule `CN(C)CCc1cccc(Cl)c1`, the Ki in assay [1] (read-out: Ki) was more than 10000 nM.
On the same count and under the same terms, the same measure for `COc1ccccc1C1(O)CCNCC1`: more than 10000 nM.
Take `N=C(N)NCc1cccc(Cl)c1`: the Ki in assay [1] (read-out: Ki) was 1200 nM.
Take `N=C(N)NC(=O)Nc1cccc(Cl)c1`: the Ki in assay [1] (read-out: Ki) amounted to 1250 nM.
The same measure, in the same setting: as for `N=C(N)NCCc1ccccc1Cl`, the figure is 150 nM.
In the assay listed under Oryctolagus cuniculus, `c1ccc2cc(N3CCNCC3)ccc2c1` registered a Min effective dose of 0.03 mg/kg. Further, the Ki in assay [1] (read-out: Ki) amounted to 32 nM. In the assay listed under Rattus norvegicus [3], the Relative potency is less than 0.02.
As to `NC=Nc1cccc(Cl)c1`, in assay [1] (read-out: Ki), the Ki is more than 10000 nM.
The same measure, in the same setting: as for `N=C(N)NC(=N)Nc1ccccc1Cl`, the figure is 62 nM; as for `NCCCCc1cccc(Cl)c1`, more than 10000 nM.
`NC(N)=Nc1ccc2ccccc2c1` yielded a Min effective dose in the assay filed under Oryctolagus cuniculus of 0.015 mg/kg. In assay [1] (read-out: Ki), the Ki is 25 nM. In the assay filed under Rattus norvegicus [3], the Relative potency is given as 1.
In the case of `N=C(N)/N=C(\N)Nc1cccc([N+](=O)[O-])c1`, in assay [1] (read-out: Ki), the Ki came to 220 nM.
As for `Clc1cccc(N2CCNCC2)c1` [CHLOROPHENYLPIPERAZINE], the Ki in assay [1] (read-out: Ki) is 62 nM. For the same molecule, the Relative potency in the assay filed under Rattus norvegicus [3] is listed as less than 0.02.
With `Clc1cccc(N2CCNCC2)n1`, the Ki in assay [1] (read-out: Ki) worked out at 15 nM.
Still for that read-out and setting: the same measure for `Cc1cccc(N2CCN(C)CC2)n1`: 560 nM; for `NCCCc1cccc(Cl)c1`: more than 10000 nM; for `COc1ccc(Cl)cc1N1CCNCC1`: 40 nM.
On the same count and under the same terms, as for `C[N+]1(C)CCN(c2cccc(C(F)(F)F)c2)CC1`, the figure is more than 10000 nM.
For the molecule `CN1CCN(c2ccc3ccccc3n2)CC1`, in assay [1], the Ki came to 3 nM.
For `Cc1cccc(NC(=N)N)c1`, the Ki in assay [1] (read-out: Ki) was 6520 nM.
Same read-out and setting: the same measure for `COc1ccccc1N1CCNCC1`: 2500 nM.
Same read-out and setting: the same measure for `c1ccc(C2CCNCC2)cc1`: more than 10000 nM; for `NCCNC(=O)c1cccc(Cl)c1`: more than 10000 nM.
`NCCC(=O)Nc1cccc(Cl)c1`: the Ki in assay [1] (read-out: Ki) was more than 10000 nM.
The same measure, in the same setting: the same measure for `N=C(N)Nc1ccc(Cl)cc1`: 320 nM.
For `N=C(N)NC(=N)Nc1cccc(Cl)c1`, in the assay listed under Oryctolagus cuniculus, the Min effective dose was 0.0066 mg/kg. Moreover, the Ki in assay [1] (read-out: Ki) was 17 nM. In the assay listed under Rattus norvegicus [3], this molecule came in with a Relative potency of 1.
Regarding `NCCc1cccc(Cl)c1`, the Ki in assay [1] (read-out: Ki) was more than 10000 nM.
Same read-out and setting: as for `Cc1ccc(NC(=N)N=C(N)N)cc1`, the figure is more than 10000 nM; as for `CN(C)C(=N)N=C(N)Nc1cccc(Cl)c1`, more than 10000 nM; as for `NC(=O)Nc1cccc(Cl)c1`, more than 10000 nM.
As for `N=C(N)NCCc1ccc(Cl)cc1`, the Ki in assay [1] (read-out: Ki) was 243 nM.
On the same count and under the same terms, the same measure for `NCCCNc1cccc(Cl)c1`: more than 10000 nM; for `COc1ccc(N2CCNCC2)c(OC)c1`: more than 10000 nM; for `Clc1cccc(CC2=NCCN2)c1`: more than 10000 nM.
Consider `CNCCc1cccc(Cl)c1`, for which the Ki in assay [1] (read-out: Ki) is more than 10000 nM.
The same measure, in the same setting: the same measure for `Cc1ccc(NC(N)=NC(=N)N)cc1Cl`: 225 nM; for `NC(N)=Nc1ccccc1Cl`: 190 nM; for `c1ccc(N2CCNCC2)cc1` [PHENYLPIPERAZINE]: 3000 nM.

In general, Ki refers to a dissociation constant, usually derived from enzyme kinetics or from competition with a known ligand.
